Assay results as given in PMC117120 (BMC Biochemistry, 2002).
Where a chain is given by its changes, count along the chain named. Where “and” joins values, the source holds several entries; their conditions need not be identical. Identical values can stand only once.

Experiments:
[1] = molecular target: T1, H145A mutant mouse 5-HT3ASR (Mus musculus, UniProt P23979, H146A); experiment: [^3H]granisetron saturation binding, H145A receptor; conditions: ± SE
T1 sequence (P23979 24-483 isoform P23979-2 H146A): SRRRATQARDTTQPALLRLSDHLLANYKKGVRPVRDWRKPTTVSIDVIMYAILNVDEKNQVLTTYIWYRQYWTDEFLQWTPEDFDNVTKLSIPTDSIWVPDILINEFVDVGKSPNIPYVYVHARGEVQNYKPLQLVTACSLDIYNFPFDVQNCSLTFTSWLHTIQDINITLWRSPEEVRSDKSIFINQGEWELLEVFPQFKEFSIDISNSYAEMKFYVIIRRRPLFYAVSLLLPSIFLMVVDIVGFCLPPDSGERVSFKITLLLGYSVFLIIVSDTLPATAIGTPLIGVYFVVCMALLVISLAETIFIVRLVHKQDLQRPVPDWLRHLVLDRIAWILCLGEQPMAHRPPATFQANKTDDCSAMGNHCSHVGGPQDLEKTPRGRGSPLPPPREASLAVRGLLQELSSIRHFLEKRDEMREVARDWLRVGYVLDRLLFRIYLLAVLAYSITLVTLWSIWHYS

[2] = tested on: Q150A – K153A mutant mouse 5-HT3ASRs; experiment: [^3H]granisetron saturation binding, Q150A – K153A receptors
[3] = molecular target: T2, E148A mutant mouse 5-HT3ASR (Mus musculus, UniProt P23979, E149A); experiment: [^3H]granisetron saturation binding, E148A receptor
T2 sequence (P23979 24-483 isoform P23979-2 E149A): T1 sequence (P23979 24-483 isoform P23979-2 H146A) with A123H, E126A

[4] = molecular target: T3, R146A mutant mouse 5-HT3ASR (Mus musculus, UniProt P23979, R147A); experiment: [^3H]granisetron saturation binding, R146A receptor; conditions: ± SE
T3 sequence (P23979 24-483 isoform P23979-2 R147A): T1 sequence (P23979 24-483 isoform P23979-2 H146A) with A123H, R124A

[5] = molecular target: T4, V149A mutant mouse 5-HT3ASR (Mus musculus, UniProt P23979, V150A); experiment: [^3H]granisetron saturation binding, V149A receptor
T4 sequence (P23979 24-483 isoform P23979-2 V150A): T1 sequence (P23979 24-483 isoform P23979-2 H146A) with A123H, V127A

[6] = molecular target: T5, Y142A mutant mouse 5-HT3ASR (Mus musculus, UniProt P23979, Y143A); experiment: [^3H]granisetron saturation binding, Y142A receptor; conditions: ± SE
T5 sequence (P23979 24-483 isoform P23979-2 Y143A): T1 sequence (P23979 24-483 isoform P23979-2 H146A) with Y120A, A123H

Compound: CN1C2CCCC1CC(NC(=O)c1nn(C)c3ccccc13)C2 (stereo not shown) [[^3H]granisetron]
- Bmax [1]: 0.81 ± .07 pmol/mg protein
- Hill coefficient (n) [1]: 1.38 ± 0.17
- decrease in binding affinity (increased Kd), mutant vs wildtype [2]: 6 – 8 fold
- decrease in binding affinity (increased Kd), mutant vs wildtype ([3]; E148A vs wildtype): 5.3 fold
- Bmax ([3]; E148A, ± SE): 5.5 pmol/mg protein and 5.5 ± 1.2 pmol/mg protein
- Hill coefficient (n) ([3]; E148A, ± SE): 0.93 ± 0.19
- Bmax [4]: 1.0 ± .16 pmol/mg protein
- binding of [^3H]granisetron [5]: No detectable binding
- Bmax [6]: 0.97 ± .14 pmol/mg protein
- Hill coefficient (n) [6]: 1.6 ± 0.27
